Where two headings read alike, the source gives them in different places.
Key:
[1] = test system: differentiated SH-SY5Y cells; assay: Neurite extension (neurite length) in differentiated cells, microscopy; assay type: cell-based, human; conditions: 24 h, read-out: Neurite Retraction IC50
Description: SH-SY5Y cells were seeded at 5 × 10^5 cells/well in 12-well poly-D-Lysine coated plates and grown for 24 h to ensure cell adhesion. Cells were then treated with pesticides in differentiation media for 24 h. Cell images were captured using a phase contrast microscope (Olympus, DP70, London, UK). Cells were considered differentiated if each neuronal cell contained at least one process that was longer than its cell body. The neurite length from 100 randomly chosen cells were measured in five selected regions of each well using the neurite tracer tool in Image J (Image J 1.49k, National Institute of Health, Bethesda, MD, USA). Results are expressed as mean percentage neurite length (±SEM) relative to vehicle-control treated cells.

[2] = WHO class; cited from earlier work
[3] = test system: SH-SY5Y cells; assay: MTT cell viability assay; assay type: cell-based, human; conditions: read-out: MTT IC50
Description: (§1) SH-SY5Y cells were differentiated as described by Encinas et al. (2000) after seeding onto either poly-D-Lysine hydrobromide (PDL) (50 µg/mL) (P6407, Sigma-Aldrich, Poole, UK) -coated cell cultureware or in 96-well microtitre plates (6005649, Perkin Elmer, Groningen, The Netherlands) with 10% FBS media and after settling, cells were grown to 60% confluency.
In brief, 3 × 10^4 cells/well were grown in laminin-coated 96-well clear-bottom tissue culture plates. Undifferentiated cells were challenged with each agent for 24 h within the concentration ranges specified by diluting each compound in the cell culture medium. Differentiated cells that were grown on 96-well plates were treated with each compound diluted in cell culture medium. After incubation with the compounds, spent media was removed and then replaced with the corresponding media for differentiated or undifferentiated cells containing 10% of 5 mg/mL MTT and incubated for 4 h. Wells that only received 10% MTT and respective growth media served as background controls. The formazan crystals generated were suspended in 1:1 DMSO and isopropanol solution and the absorbance of wells read at 570 nm using a spectrophotometer (Multiskan Spectrum, Thermo Electron Corporation, Vantaa, Finland). Experiments were performed in triplicates from which an average was taken, and blank (negative control) values were subtracted. Cell viability was expressed as a percentage of survival […] from at least five repeated experiments. The concentration of agent producing a 50% inhibition of cell viability (IC50 values) was obtained from the concentration-response curves and expressed as means ± standard error of the mean (SEM).

[4] = test system: SH-SY5Y cells; assay: Lactate dehydrogenase (LDH) assay, extracellular LDH; assay type: cell-based, human
Description: as §1
The production of active extracellular LDH in response to pesticide exposures was measured using an LDH assay kit (ab65393, Abcam, Cambridge, UK) according to the manufacturer’s instructions. After agent treatment (1–200 µM, or vehicle control), 50 µL of spent media was removed and LDH activity was measured spectrophotometrically at 450 nm (Multiskan Spectrum, Thermo Electron Corporation, Finland). Assays were performed in triplicates, with blank values from a negative control subtracted from test values. IC50 values were obtained from the concentration-response curves and expressed as means ± standard error of the mean (SEM). Experiments were performed with an n-number of at least five.

[5] = test system: rat; conditions: cited from earlier work
[6] = target: T1, acetylcholinesterase (AChE) (Homo sapiens, UniProt P22303); assay: cell-based; conditions: 24 h
T1 construct: endogenous in cells; host or cells: SH-SY5Y human neuroblastoma cells (ECACC-94030304), undifferentiated and differentiated
T1 sequence (P22303 32-614): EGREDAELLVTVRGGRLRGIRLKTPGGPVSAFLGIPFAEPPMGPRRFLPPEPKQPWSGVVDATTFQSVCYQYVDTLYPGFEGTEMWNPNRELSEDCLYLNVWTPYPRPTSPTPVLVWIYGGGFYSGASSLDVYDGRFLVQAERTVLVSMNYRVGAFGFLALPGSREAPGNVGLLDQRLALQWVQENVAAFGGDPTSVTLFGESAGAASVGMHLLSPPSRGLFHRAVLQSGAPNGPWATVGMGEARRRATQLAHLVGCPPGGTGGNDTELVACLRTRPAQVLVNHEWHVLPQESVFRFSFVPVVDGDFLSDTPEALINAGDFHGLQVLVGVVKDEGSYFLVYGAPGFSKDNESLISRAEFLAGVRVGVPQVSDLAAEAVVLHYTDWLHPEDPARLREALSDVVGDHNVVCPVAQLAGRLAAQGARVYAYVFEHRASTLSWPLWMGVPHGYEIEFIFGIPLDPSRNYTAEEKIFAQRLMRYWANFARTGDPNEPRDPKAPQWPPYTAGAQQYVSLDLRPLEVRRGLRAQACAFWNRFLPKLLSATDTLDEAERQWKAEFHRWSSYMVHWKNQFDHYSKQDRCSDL
Description: Inhibition of AChE was assessed using an Ellman’s assay modified for harvested cells [32, 33]. […] The supernatant was discarded, and the resultant cell pellet was retained and resuspended in 1 mL of potassium phosphate buffer pH 8.0. A volume of 100 µL was then assayed as a 1:1 mixture with ATCI and DTNB. […] Since the absorbance background increased with time, the associated absorbance of buffer blanks was subtracted at each time point for each data point. Corrected absorbance readings for each treatment were normalized to the means of the vehicle control and AChE activity presented as a percentage relative to the vehicle control.

[7] = test system: SH-SY5Y cells; assay: Intracellular ATP levels, luminescence assay; assay type: cell-based, human
Description: as §1
Undifferentiated and differentiated cells that were grown in 6-well plates were treated with MTT cell viability inhibition concentrations that produced 10, 20, 50, and an 80% loss of cell viability. Intracellular ATP levels were quantified using an ATP luminescence assay kit (ATP Bioluminescence Assay Kit CLS II (product 11 699 695 001, Roche, Germany), according to the manufacturer’s protocol. ATP standards were prepared according to the kit protocol across a concentration range of 1 × 10^−4 to 1 × 10^−10 M and after the addition of luciferase reagent to each well, the luminescence was measured using a luminometric plate reader (Thermo Fisher Scientific, Fluoroskan Ascent FC, Vantaa, Finland) using an integration time of 1 s. The ATP content in control and pesticide-treated samples were interpolated from the ATP standard curve. Experiments were performed in triplicates and five individual experiments were undertaken from which a mean was calculated, with blank values subtracted.

[8] = Homo sapiens, differentiated SH-SY5Y cells

For `COP(=O)(OC)SCn1c(=O)oc2cc(Cl)cnc21` [AZO, 6-chloro-3-(dimethoxyphosphorylsulfanylmethyl)-[1,3]oxazolo[4,5-b]pyridin-2-one], the IC50 ([1]; Homo sapiens, SH-SY5Y) is listed as 16.5 ± 1.3 µM, the hazard classification [2] is listed as “Class II” and the IC50 ([3]; Homo sapiens, SH-SY5Y, 24 h) is listed as 26.9 ± 1.1 µM. The IC50 ([3]; Homo sapiens, SH-SY5Y) was 19.6 ± 0.5 µM, the IC50 ([4]; Homo sapiens, SH-SY5Y, 24 h, read-out: LDH IC50, differentiated SH-SY5Y cells, 24 h exposure) was 20.5 ± 1.6 µM and the IC50 ([4]; Homo sapiens, SH-SY5Y, 24 h, read-out: LDH IC50, undifferentiated SH-SY5Y cells, 24 h exposure) was 26.5 ± 0.9 µM. The “rat oral LD50” value [5] was 1180 mg/kg, the IC50 ([6]; AChE Inhibition IC50, differentiated SH-SY5Y cells) was 0.22 µM and the IC50 ([6]; AChE Inhibition IC50, undifferentiated SH-SY5Y cells) was 0.3 µM. For the same compound, the IC50 ([7]; Homo sapiens, SH-SY5Y, read-out: ATP IC50, differentiated SH-SY5Y cells) was 20.7 ± 0.1 µM and the IC50 ([7]; Homo sapiens, SH-SY5Y, read-out: ATP IC50, undifferentiated SH-SY5Y cells) was 26 ± 0.6 µM.

For `CNC(=O)O/N=C/C(C)(C)SC` [Aldicarb, [(E)-(2-methyl-2-methylsulfanylpropylidene)amino] N-methylcarbamate], the IC50 [1, 8] is given as 30.2 ± 4.7 µM, the hazard classification [2] is given as “Class Ia” and the IC50 [3, 8] is given as 31.6 ± 2.2 µM. The IC50 ([3]; Homo sapiens, undifferentiated SH-SY5Y cells, 24 h exposure) was 39.6 ± 3.6 µM, the IC50 ([4]; Homo sapiens, SH-SY5Y, 24 h, differentiated SH-SY5Y cells, 24 h exposure, read-out: LDH IC50) was 29.9 ± 1.6 µM and the IC50 ([4]; Homo sapiens, SH-SY5Y, 24 h, undifferentiated SH-SY5Y cells, 24 h exposure, read-out: LDH IC50) was 35.4 ± 1.4 µM. For the same compound, the “rat oral LD50” value [5] was 0.65 mg/kg, the IC50 ([7]; Homo sapiens, SH-SY5Y, differentiated SH-SY5Y cells, read-out: ATP IC50) was 32.4 ± 1.2 µM and the IC50 ([7]; Homo sapiens, SH-SY5Y, undifferentiated SH-SY5Y cells, read-out: ATP IC50) was 40.2 ± 2.9 µM.

In the case of `CCOP(=S)(OCC)Oc1nc(Cl)c(Cl)cc1Cl` [chlorpyrifos, Chlorpyrifos], the “rat oral LD50” value [5] is given as 82 mg/kg.

For `CCOP(=O)(OCC)Oc1nc(Cl)c(Cl)cc1Cl` [CPO, diethyl (3,5,6-trichloropyridin-2-yl) phosphate], the IC50 ([1]; differentiated SH-SY5Y cells) was 10.8 ± 0.1 µM, the IC50 ([3]; differentiated SH-SY5Y cells) was 17.3 ± 0.9 µM and the IC50 ([3]; undifferentiated SH-SY5Y cells, 24 h exposure) was 29.4 ± 2.1 µM. For the same compound, the IC50 ([4]; differentiated SH-SY5Y cells, 24 h exposure, read-out: LDH IC50) was 17.2 ± 1.1 µM, the IC50 ([4]; undifferentiated SH-SY5Y cells, 24 h exposure, read-out: LDH IC50) was 27.8 ± 2.1 µM and the IC50 ([7]; differentiated SH-SY5Y cells, read-out: ATP IC50) was 18.8 ± 0.1 µM. The IC50 ([7]; undifferentiated SH-SY5Y cells, read-out: ATP IC50) was 29.6 ± 2.1 µM.

Reference: PMC10216341 (Brain Sciences, 2023)
